This note sets out measurements from article PMC12771125, “Compounds Reducing Human Sperm Motility as Potential Nonhormonal Contraceptives Identified Using a High-Throughput Phenotypic Screening Platform” (ACS Omega, 2025).

Molecules are shown by their SMILES. In brackets after ≈: the same amount, converted by molar mass. Where two headings read alike, the source gives them in different places. A value given as a limit tells only on which side of the number the result lay.

One data set has as its system HepG2 cells. As to the kind of experiment: HepG2 cytotoxicity assay (resazurin, 72 h). The data set is classed as cell-based, human. As to conditions: for EC50: Homo sapiens, HepG2, 72 h, read-out: HepG2 pEC50 (converted). In short, it runs like this: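 HepG2 cells in MEM with glutamax and 10% FCS exposed to compounds for 72 h; resazurin (45 μM final) added for a further 4 h, fluorescence read at ex 528/em 590 nm. Data normalized to controls as % growth; pEC50 is the mean of duplicate curves.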
On the technique in general: The colour change of resazurin is a common sign of viable cells or microbes.

The next data set in a line: Aqueous solubility. The data set is classed as physicochemical.
In another data set the test system is human sperm. As to the kind of experiment: Reduction of sperm motility (RSM) high-throughput phenotypic assay. The class given is cell-based. As to conditions: for EC50: Homo sapiens, reduction of progressive sperm motility relative to control. In short, it runs like this:
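Pooled human sperm from at least 3 normozoospermic donors were prepared by discontinuous density gradient centrifugation and incubated for 3 h at 37 °C under noncapacitating conditions. About 10,000 spermatozoa (20 μL) were dispensed into each well of 384-well plates holding compound. A Yokogawa CV7000 recorded time-lapse images, and Trackpy tracking measured progressive motility as a percentage of in-plate DMSO controls.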

Setting [1] is: 10 min, 10 min incubation, reported <X (neg. log of top concentration) if largest reduction <70%, read-out: RSM pEC50 10 mins (converted).
Where [2] appears, read: 3 h incubation, reported <X if largest reduction <70%, read-out: RSM pEC50 3 hrs (converted).
The mark [3] stands for this setting: 6 h incubation, reported <X if largest reduction <70%, read-out: RSM pEC50 6 hrs (converted).

Usually solubility stands for how much of the substance goes into solution per volume. A high value points to a readily soluble substance. For the molecule `COc1ccc(Cl)cc1C(=O)Nc1ccc(C#N)c(Cl)c1` [Compound 1j], the EC50 in the data set with HepG2 cells is over 100 µM; in the data set on human sperm (setting [1]), over 20 µM. In “Aqueous solubility”, this molecule gave a solubility of 0.19 µM (≈ 0.061 µg/mL).

Turning to `COc1ccc(Nc2ccnc3cc(Cl)ccc23)cc1` [Compound 5g], the EC50 in the data set on HepG2 cells was over 100 µM; in the data set on human sperm (setting [1]), over 31.6 µM; in the data set with human sperm (setting [2]), over 31.6 µM; in the data set with human sperm (setting [3]), over 31.6 µM. This molecule gave a solubility in the data set “Aqueous solubility” of 4.9 µM (≈ 1.4 µg/mL).

For the molecule `Clc1ccc2c(Nc3ccc4[nH]ccc4c3)ccnc2c1` [Compound 5k], the EC50 with HepG2 cells was 12.6 µM; in the data set with human sperm (setting [1]), over 31.6 µM; with human sperm (setting [2]), over 31.6 µM; in the data set on human sperm (setting [3]), over 31.6 µM. The same molecule had a solubility in “Aqueous solubility” of 11 µM (≈ 3.23 µg/mL).

On to `c1cncc(-c2cc(N3CCCCC3)c3ccccc3n2)c1` [Compound 7c], for which the EC50 is over 100 µM in the data set on HepG2 cells, over 31.6 µM with human sperm (setting [1]), over 31.6 µM in the data set on human sperm (setting [2]) and over 31.6 µM in the data set with human sperm (setting [3]). This molecule came in with a solubility in the data set “Aqueous solubility” of 57 µM (≈ 16.5 µg/mL).

Regarding `CN(c1ccccc1Nc1nc(Nc2ccc(CN3CCOCC3)cc2)ncc1Cl)S(C)(=O)=O` [Compound 2d], the EC50 was 0.398 µM in the data set with HepG2 cells, over 31.6 µM in the data set on human sperm (setting [1]), 0.126 µM with human sperm (setting [2]) and 0.126 µM in the data set with human sperm (setting [3]). Further, the “increase in cytotoxicity against HepG2 cells” value with HepG2 cells (compared with hit 2a) is 1 log. For the same molecule, in “Aqueous solubility”, the concentration in solution (solubility) was 64 µM (≈ 32.2 µg/mL). Further, in the data set with human sperm (after 6 h incubation, compared with hit 2a), the “increase in potency in the sperm motility assay” value came to 1 log-unit.

Take `O=C(Nc1nc2c(Cl)cccc2s1)C1CC1` [Compound 4i]: the EC50 in the data set on HepG2 cells was over 100 µM; in the data set with human sperm (setting [1]) it was over 31.6 µM; with human sperm (setting [2]), over 31.6 µM; with human sperm (setting [3]) it was over 31.6 µM. The concentration in solution in “Aqueous solubility” (solubility) was 5.1 µM (≈ 1.29 µg/mL).

Regarding `CS(=O)(=O)Nc1ccccc1Nc1nc(NC2CCOCC2)ncc1Cl` [Compound 2f], the EC50 was 5.01 µM with HepG2 cells, over 31.6 µM with human sperm (setting [1]), over 31.6 µM in the data set on human sperm (setting [2]) and over 31.6 µM in the data set with human sperm (setting [3]). Besides, the concentration in solution in “Aqueous solubility” (solubility) came to 16 µM (≈ 6.37 µg/mL).

Consider `c1ccc2c(N3CCCCC3)cc(N3CCCCC3)nc2c1` [Compound 7e], for which the EC50 in the data set with HepG2 cells was over 100 µM; with human sperm (setting [1]), over 31.6 µM; in the data set on human sperm (setting [2]), over 31.6 µM; in the data set on human sperm (setting [3]) it was over 31.6 µM. This molecule also gave a solubility in the data set “Aqueous solubility” of 8.1 µM (≈ 2.39 µg/mL).
